Source: the supplement of paper PMC10307832

Compound: CN1CCN(CC1)C2=CC(=C(C=C2)NC3=NC=C4C(=N3)N(C5=CC=CC=C5C(=O)N4C)C)OC [XMD8-85] + CCNC(=O)c1noc(-c2cc(C(C)C)c(O)cc2O)c1-c1ccc(CN2CCOCC2)cc1 [Luminespib] (partner 0.01 µM)
Experiment: relative viability (nuclei count vs DMSO), 5 days (fraction); higher = more cells survive
Conditions: first compound 0.8 µM
Method in brief: (§1)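 Lung cancer cell lines, seeded in 1536-well plates, were treated the following day by pin tool with a single drug or with five library-drug doses (not always all listed) in √10 steps on top of a fixed anchor-drug dose. Cells were fixed and nuclei stained in one step after 5 days, and nuclei were counted. Relative viability is the nuclei count for treated wells divided by that for vehicle wells, reported as medians of duplicate plates.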

| Cell Line | relative viability |
| --- | --- |
| LCLC-103H | 0.864 |
| LK-2 | 0.192 |
| LOU-NH91 | 0.326 |
| LU99A | 0.206 |
| LXF-289 | 0.584 |
| NCI-H23 | 0.214 |
| NCI-H322M | 0.797 |
| NCI-H358 | 0.376 |
| NCI-H441 | 0.4 |
| NCI-H460 | 0.0359 |
| NCI-H520 | 0.192 |
| NCI-H1563 | 0.505 |
| NCI-H1623 | 0.58 |

Same assay, conditions: first compound 2.53 µM

| Cell Line | relative viability |
| --- | --- |
| 201T | 1.03 |
| A-427 | 1.1 |
| ABC-1 | 0.703 |
| BEN | 0.357 |
| CAL-12T | 0.333 |
| ChaGo-K-1 | 0.585 |
| EKVX | 0.877 |
| EMC-BAC-2 | 1.28 |
| EPLC-272H | 0.389 |
| H3255 | 0.889 |
| HARA | 0.528 |
| HCC-15 | 0.336 |
| HCC-44 | 0.588 |
| HCC-827 | 0.797 |
| HOP-62 | 0.762 |
| LC-2-ad | 0.874 |
| LCLC-97TM1 | 0.813 |
| LCLC-103H | 1.12 |
| LK-2 | 0.155 |
| LOU-NH91 | 0.523 |
| LU99A | 0.309 |
| NCI-H23 | 0.199 |
| NCI-H322M | 0.927 |
| NCI-H358 | 0.339 |
| NCI-H441 | 0.356 |
| NCI-H460 | 0.0262 |
| NCI-H520 | 0.202 |
| NCI-H1563 | 0.536 |
| NCI-H1623 | 0.42 |

Same assay, conditions: first compound 8 µM

| Cell Line | relative viability |
| --- | --- |
| 201T | 0.936 |
| A-427 | 0.669 |
| ABC-1 | 0.373 |
| BEN | 0.317 |
| CAL-12T | 0.216 |
| COR-L23 | 0.487 |
| COR-L 105 | 0.272 |
| ChaGo-K-1 | 0.501 |
| EKVX | 0.876 |
| EMC-BAC-2 | 0.951 |
| EPLC-272H | 0.186 |
| H3255 | 0.707 |
| HARA | 0.387 |
| HCC-15 | 0.302 |
| HCC-44 | 0.75 |
| HCC-827 | 0.614 |

| Cell Line | relative viability |
| --- | --- |
| HOP-62 | 0.683 |
| LC-2-ad | 0.706 |
| LCLC-97TM1 | 0.85 |
| LCLC-103H | 0.704 |
| LK-2 | 0.162 |
| LOU-NH91 | 0.309 |
| LU99A | 0.193 |
| LXF-289 | 0.4 |
| NCI-H23 | 0.193 |
| NCI-H322M | 0.68 |
| NCI-H358 | 0.239 |
| NCI-H441 | 0.231 |
| NCI-H460 | 0.0291 |
| NCI-H520 | 0.201 |
| NCI-H1563 | 0.567 |
| NCI-H1623 | 0.489 |

Compound: CN1CCN(CC1)C2=CC(=C(C=C2)NC3=NC=C4C(=N3)N(C5=CC=CC=C5C(=O)N4C)C)OC [XMD8-85] + Cc1nc(Nc2ncc(C(=O)Nc3c(C)cccc3Cl)s2)cc(N2CCN(CCO)CC2)n1 [Dasatinib] (partner 0.075 µM)
Experiment: as above
Conditions: first compound 0.08 µM
Method in brief: as §1

| Cell Line | relative viability |
| --- | --- |
| A-427 | 0.734 |
| ABC-1 | 0.515 |
| BEN | 0.322 |
| CAL-12T | 0.374 |
| COR-L23 | 0.516 |
| COR-L 105 | 0.336 |
